# “And” between values parts separate entries of the source, which are not always exact repeats. Identical values can stand only once.
# System: GUMC-403
# Assay: viability at highest tested concentration (max response) relative to DMSO (% of DMSO control); higher = less cytotoxic
# Conditions: library / dose series: MIPE library, 11-point 1:3 dilution, 48 h
# How it was run: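 Each figure stands for viability at the highest tested concentration compared with vehicle control. It was measured by CellTiter-Glo luminescence on a ViewLux after 48 h of exposure to 23 nL of pinned compound, with vehicle wells taken as 100% and empty wells as 0%. The cells were patient-derived GUMC-403 papilloma cells grown by conditional reprogramming, plated at 700/well in 5 μL F + Y medium in 1536-well plates.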
SMILES,viability (top concentration 46.1 µM),viability (top concentration 23 µM)
COc1ccc(C[C@@H](C)[C@@H](C)Cc2ccc(OC)c(OC)c2)cc1OC,122,
CCCCN(CCCC)CC(O)c1cc(Cl)cc2c1-c1ccc(Cl)cc1/C2=C/c1ccc(Cl)cc1 (configuration not stated),104,
COc1ccc(Cc2ccc(NC(N)=O)cc2)cc1-c1cccc(Cl)c1,124,
NC(=O)N1CCC(CC(=O)N2CCC([C@H]3c4ncc(Br)cc4CCc4cc(Cl)cc(Br)c43)CC2)CC1,101,
Cc1cc(Nc2nc(N[C@@H](C)c3ncc(F)cn3)ncc2Cl)n[nH]1,163,
CC\12CCC(=O)\C=C1CCC3C2CCC4(C)C3CCC4(O)C#C (configuration not stated),103,
COC(=O)N[C@H](C(=O)N1CCC[C@H]1c1ncc(-c2ccc(-c3ccc(-c4cnc([C@@H]5CCCN5C(=O)[C@@H](NC(=O)OC)C(C)C)[nH]4)cc3)cc2)[nH]1)C(C)C,138,
N=C(N)NC(=N)NCCc1ccccc1,83.9,
c1ccc(-c2nn3c(c2-c2ccnc4cc(OCCN5CCOCC5)ccc24)CCC3)nc1,148,
O=C(Nc1nc2cccc(-c3ccc(CN4CC[S+](=O)([O-])CC4)cc3)n2n1)C1CC1,40.4,
COc1ccc(Cc2nccc3cc(OC)c(OC)cc23)cc1OC,109,
CC(C)(C)NC(=O)[C@H]1CC[C@H]2[C@@H]3CC[C@H]4NC(=O)\C=C/[C@]4(C)[C@H]3CC[C@]12C,66.2,
CC[C@@H](C(N)=O)N1CCCC1=O,6.2,
C[C@H]1CN(C[C@@H](C)O1)CC(=O)NC2=CC=C3SC4=C(CC3=C2)C=CC=C4\C5=C\C(=O)\C=C(/O5)N6CCOCC6,115,
COC1=NC(=NC(=C1N\C2=N\CCN2)Cl)C,95.8,
CNC1CCC(N(Cc2cccc(-c3ccncc3)c2)C(=O)c2sc3ccccc3c2Cl)CC1 (configuration not stated),110,
CCOc1ccc(Nc2nc(-c3c(C)nc4ccccn34)cs2)cc1,101,
Cc1cnn(C)c1C(=O)Nc1cc(Nc2ccc3c(/C=C/c4ccccn4)n[nH]c3c2)ccc1F,125,
CN1CCN(c2ncc(-c3cc(Cl)cc(Cl)c3Cl)c(N)n2)CC1,119,
CC[C@H]1OC(=O)[C@H](C)C(=O)[C@H](C)[C@@H](O[C@H]2O[C@H](C)C[C@H](N(C)C)[C@H]2O)[C@](C)(OC)C[C@@H](C)C(=O)[C@H](C)[C@H]2N(CCCCn3cnc(-c4cccnc4)c3)C(=O)O[C@]12C,102,
CCC(=O)OC1CCC2C3CCC/4=C/C(=O)CC[C@@]4(C)C3CC[C@]12C (some centres not stated),130,

SMILES,viability (top concentration 46.1 µM),viability (top concentration 23 µM)
CCCCCCCCCCCCCCCC(=O)O[C@@H]1[C@@H](O)[C@@H](O)[C@@H]([C@H](NC(=O)[C@@H]2C[C@@H](CCC)CN2C)[C@H](C)Cl)O[C@@H]1SC.Cl,116,
CC(C)n1cnc2c(NCCc3ccc(O)cc3)nc(-c3csc4ccccc34)nc21,112,
CC(C)n1cnc2c(NCCCCCCNC(=O)OC(C)(C)C)nc(NCCO)nc21,107,
C[C@H]1[C@H](O)O[C@@H]2O[C@@]3(C)CC[C@H]4[C@H](C)CC[C@@H]1[C@@]24OO3,90.6,
COC1=CC=C(C=C1)C/2=C/OC3=C(C(=CC(=C3)O)O)C2=O,120,
O=P1(N(CCCl)CCCl)NCCCO1 (configuration not stated),116,
CCc1nc(N)nc(N)c1-c1ccc(Cl)cc1,97.1,
O=C(OCC#CCSc1nnc(-c2cccc3ccccc23)o1)c1cc2ccccc2s1,102,
C[C@H]1O[C@H]([C@H](O)[C@@H]1O)N2\C=C(F)/C(=O)NC2=O,124,
C[C@H]1COC/2=C1/C(=O)C(=O)C3=C4CCCC(C)(C)C4=CC=C23,137,
CN1CCN2c3ncccc3Cc3ccccc3C2C1 (configuration not stated),101,
CC1=C(C)C(=O)C(C(CCCCCC(=O)O)c2ccccc2)=C(C)C1=O (configuration not stated),110,
CC1(C)OC2CC3C4CC(F)C/5=C/C(=O)/C=C\C5(C)C4C(O)CC3(C)[C@@]2(O1)C(=O)CO (some centres not stated),148,
CC[C@H]1OC(=O)[C@H](C)[C@@H](O[C@H]2C[C@@](C)(OC)[C@@H](O)[C@H](C)O2)[C@H](C)[C@@H](O[C@@H]2O[C@H](C)C[C@H](N(C)C)[C@H]2O)[C@](C)(OC)C[C@@H](C)C(=O)[C@H](C)[C@@H](O)[C@]1(C)O,112,
OC1=C(O)C2=C(\C=C/C(=O)O2)C=C1,110,
NC(=O)c1ccc(I)c([N+](=O)[O-])c1,122,
CCCCCCCCCCCCCCCC(=O)OC[C@@H](NC(=O)C(Cl)Cl)[C@H](O)c1ccc([N+](=O)[O-])cc1,130,
Cc1ccc2c(c1)c1c(n2CCc2ccc(C)nc2)CCN(C)C1,108,
c1cc(OCCN2CCCCC2)cc(-c2n[nH]c3ccc(-c4nc[nH]n4)cc23)c1,111,
Nc1ccc([S+](=O)([O-])Nc2ccnn2-c2ccccc2)cc1,133,
CC(C)(O)CC(=O)NCCn1ccc2ncnc(Nc3ccc(Oc4cccc(C(F)(F)F)c4)c(Cl)c3)c21,71.7,

SMILES,viability (top concentration 46.1 µM),viability (top concentration 23 µM)
COc1cc2nccc(Oc3ccc(NC(=O)NC4CC4)c(Cl)c3)c2cc1C(N)=O,89.9,
CC(C)C[C@H](NC(=O)c1cc2ccccc2s1)C(=O)N1CCN(C(=O)[C@H](CO)N[S+](=O)([O-])c2ccc(Cl)cc2Cl)CC1,109,
CCN1\C=C(\C(O)=O)C(=O)C2=C1C=C(N3CCNCC3)C(=C2)F,121,
CC1OC(OC/2=C(/OC3=C(C(=CC(=C3)O)O)C2=O)C4=CC=C(O)C=C4)C(O)C(OC(C)=O)C1OC(C)=O (configuration not stated),116,
Oc1ccc2ccccc2c1SSc1c(O)ccc2ccccc12,129,
C[C@H]1CC2C3CCC/4=C/C(=O)/C=C\[C@]4(C)[C@@]3(F)[C@@H](O)C[C@]2(C)[C@@]1(O)C(=O)CO (some centres not stated),127,
Cc1ccc([S+](=O)([O-])N[C@@H](Cc2ccccc2)C(=O)CCl)cc1,90.3,
Cn1cnc(-c2cc3nccc(Oc4ccc(NC(=S)NC(=O)Cc5ccccc5)cc4F)c3s2)c1,96.8,
Cc1cc(C(=O)N2CCN(c3cccc(Cl)c3)CC2)n(-c2ccccc2)n1,101,
CN1CCN(C2=Nc3cc(Cl)ccc3Nc3ccccc32)CC1,109,
ClC1=CC=C(CCCOC/2=N/NC(=O)C(=C2NCC3=CN=CC=C3)/Br)C=C1,83.2,
CC(C)OC(=O)OCOP(=O)(CO[C@H](C)Cn1cnc2c(N)ncnc21)OCOC(=O)OC(C)C.O=C(O)C=CC(=O)O,118 and 94.5,
Cc1ccc([S+](=O)([O-])Nc2nc3ccccc3nc2Nc2ccc3nsnc3c2)cc1,,66.3
CCN(CC)CCN1C(=O)\C(=N/C2=CC=CC=C12)CC3=CC=C(OC)C=C3,129,
CN1CCN(Cc2ccc(NC(=O)Nc3ccc(Oc4cc(NC(=O)C5CC5)ncn4)cc3)cc2C(F)(F)F)CC1,52.7,
O=C/1\C=C(/OC(=C1)/C2=C3SC4=C(SC3=CC=C2)C=CC=C4)N5CCOCC5,111,
Cc1cccc(Nc2nc(-c3ccncc3)cs2)c1,109,
CCC1(c2ccccc2)C(=O)NCNC1=O,105,
CN(CCOc1ccc(CC2SC(=O)NC2=O)cc1)c1ccccn1 (configuration not stated),118,
c1ccc(CNc2nc(N3CCOc4ccccc43)nc3c2CCCC3)cc1,131,

# From the supplement of paper PMC6723410
